Measurements published in article PMC11505670, “Four newly synthesized enones induce mitochondrial-mediated apoptosis and G2/M cell cycle arrest in colorectal and cervical cancer cells” (RSC Advances, 2024).

Experiments:
Format in all cases: cell-based, human
HCT-116 cells [1] = experiment: Annexin V-FITC/7-AAD apoptosis flow cytometry, HCT-116; settings: IC50 concentration, 48 h
Method: (§1) The type of cell death was assessed using flow cytometry using FITC Annexin V Apoptosis Detection Kit with 7-AAD (640922, Bio legend).[8] […] After treatment, cells were harvested, washed with PBS (resuspended in 100 μl of ice-cold 1X binding buffer), stained (20 μl of 7-AAD and 10 μl of Annexin V-FITC), and incubated in the dark for 15 min at +4 °C. After incubation, 400 μl of binding buffer was added and the samples were analyzed using flow cytometer Cytomics FC500 (Beckman Coulter, USA). Data analysis was performed using FlowJo Software and presented with histogram and dot plots.

[2] = test system: Bax and Bcl-2 in HCT-116 cells; experiment: Flow cytometric analysis of Bax and Bcl-2 expression, HCT-116; settings: HCT-116, IC50 concentration, 48 h, from MFI
Method: (§2) Cells were washed with PBS, fixed, permeabilized using Fixation and Permeabilization Kit (eBioscience), and stained separately for Bcl-2, Bax, and cleaved-caspase-3.[8,9] Permeabilized cells were incubated with primary antibodies: mouse anti-human-Bcl-2 (DC21, sc-783, Santa Cruz Biotech. Inc.), mouse anti-human Bax (N20, sc-493, Santa Cruz Biotech. Inc.), and anti-cleaved caspase-3 (Cell signaling Technology 9661). Following antibody incubation, cells were washed and incubated with secondary Alexa 488-conjugated antibodies (ab185015, Abcam, United Kingdom) for 30 minutes. After an additional wash with PBS, flow cytometry analysis was performed.
(§3) Data were analyzed using FlowJo Software. The expression of Bcl-2 and Bax proteins was quantified as mean fluorescence intensity (MFI). The results were presented with bar graphs. Bax/Bcl-2 index was calculated using the formula […]. The percentage of cells expressing active caspase-3 (MFI) was presented in histograms.

HeLa cells [3] = experiment: Annexin V-FITC/7-AAD apoptosis flow cytometry, HeLa; settings: IC50 concentration, 48 h
Method: as §1

HeLa cells [4] = experiment: MTT cytotoxicity assay, HeLa; settings: for Selectivity index (SI): IC50 healthy cells (MRC-5)/IC50 tumor cells; for Cytotoxicity range: concentration range 1–100 μM; for IC50: MTT
Method: (§4) To examine and compare the antiproliferative activities of four enones, the cytotoxicity of the compounds was assessed by the 3-(4,5-dimethylthiazol-2-yl)-2,5-diphenyltetrazolium bromide (MTT) assay[9] in, colon cancer cells (HCT-116), cervical cancer cell line (HeLa) and human fibroblast lung cell line (MRC-5) that was used as a healthy control cell line. After trypsinization, seeded (5 × 10^3 cells per well in 96-well plates) cells were treated with different concentrations of the investigated enones (1, 3, 10, 30, and 100 μM) during 48 and 72 h period incubation period +37 °C and 5–6.5% CO2. After the incubation period, the medium was removed and MTT solution (5 mg ml^−1) was added to the wells.
(§5) After a 3 hour incubation with the MTT solution, the resulting formazan crystals were dissolved in DMSO (67-68-5, Merck). Absorbance was subsequently measured at 595 nm using a microplate reader (Zenith 3100, Anthos Labtech Instruments). The percentage of cytotoxic cells was determined using the formula: cytotoxicity (%) = (1 − (exp. group (ABS))/(control group (ABS)) × 100). IC50 values were calculated using GraphPad Prism 10 software. The selectivity index (SI) was determined using the formula: SI?IC50 value for healthy cells/IC50 value for tumor cells.[9]

HCT-116 cells [5] = experiment: Cell cycle analysis (PI, flow cytometry), HCT-116; settings: IC50 concentration, 48 h; control 27.4%
Method: (§6) After treatment of HCT-116 and HeLa cells with enones, cells were harvested, washed with PBS, and fixed in 70% ice-cold ethanol at +4 °C overnight.[10] The cells were then pelleted, resuspended in 1 ml PBS containing RNAse A (12091021, Sigma Aldrich), and incubated for 30 min at 37 °C. A staining solution containing propidium iodide (1 mg PI per ml PBS) (B7758, Biotrend) was added to cells, followed by 15 min incubation in the dark. Cells were analyzed by flow cytometer Cytomics FC500. DNA content was determined using Flowing Software and cell cycle distribution was presented by graph (histograms).

HeLa cells [6] = experiment: Cell cycle analysis (PI, flow cytometry), HeLa; settings: IC50 concentration, 48 h; control 29.9%
Method: as §6

[7] = test system: cytochrome c in HCT-116 cells; experiment: Cytochrome c localization by immunofluorescence, HCT-116; settings: IC50 concentration, 48 h
Method: After 48 hours of treatment, immunofluorescence analysis of cytochrome c distribution and expression in treated cells was performed using glass coverslips.[10] Following the treatment, cells were washed with PBS, fixed in 4% formaldehyde for 20 min, and permeabilized with 0.2% Tween-20. Blocking was performed using a buffer containing 0.1% Tween-20 and 10% FBS for 30 min. The cells were then incubated for 1 hour at room temperature with a monoclonal mouse anti-human cytochrome c antibody (1:100, G7421, Promega, USA,)
Subsequently, the cells were incubated for 30 minutes with a goat anti-mouse FITC (1:200, diluted in blocking buffer), washed, and images were acquired using an inverted fluorescence microscope (Olympus IX50). Image analysis was performed using ImageJ software.

HCT-116 cells [8] = experiment: MTT cytotoxicity assay, HCT-116; settings: for percentage of cytotoxic HCT-116 cells compared to HeLa cells (fold) / percentage of cytotoxic HCT-116 cells compared to control MRC-5 cells (fold): 48 h, over the applied doses; for Cytotoxicity range: concentration range 1–100 μM; for Selectivity index (SI): IC50 healthy cells (MRC-5)/IC50 tumor cells; for IC50: MTT
Method: as §4, §5

MRC-5 cells = experiment: MTT cytotoxicity assay, MRC-5 healthy control cells
Method: as §4, §5

[9] = test system: mitochondrial membrane potential (ΔΨm) in HCT-116 cells; experiment: Mitochondrial membrane potential (ΔΨm) JC-10 analysis, HCT-116; settings: IC50 concentration, 48 h
Method: (§7) Changes in the ΔΨm caused by 48 hours of enones treatment, were assessed using JC-10 dye.[10]. (Enzo Life Sciences, Farmingdale, NY, USA).
(§8) In healthy cells, JC-10 dye accumulates in the mitochondria as red fluorescent aggregates. However, upon cell damage, changes in ΔΨm occur and result in dislocation of JC-10 from the mitochondria to the cytosol and the monomerization of aggregates, shifting fluorescence from red to green. Cells were cultured in 24-well plate (3 × 10^4 cells per well) overnight in the incubator (5% CO2, 37 °C). […] Following treatment, cells were washed with warm 1xPBS and incubated with JC-10 dye (2.5 μM in warm PBS) at 5% CO2, 37 °C for 20 minutes. Cells were then washed with 1xPBS and observed using an Olympus IX50 inverted fluorescence microscope. Images were captured and analyzed using ImageJ software. The ratio of fluorescence emissions at 525 and 590 nm was used for quantification analysis.

[10] = test system: Bax and Bcl-2 in HeLa cells; experiment: Flow cytometric analysis of Bax and Bcl-2 expression, HeLa; settings: IC50 concentration, 48 h; for Bax/Bcl-2 ratio: from MFI
Method: as §2, §3

[11] = test system: mitochondrial membrane potential (ΔΨm) in HeLa cells; experiment: Mitochondrial membrane potential (ΔΨm) JC-10 analysis, HeLa; settings: IC50 concentration, 48 h
Method: as §7, §8

[12] = test system: active caspase-3 in HeLa cells; experiment: Flow cytometric analysis of active caspase-3, HeLa; settings: IC50 concentration, 48 h, vs control
Method: as §2, §3

[13] = test system: active caspase-3 in HCT-116 cells; experiment: Flow cytometric analysis of active caspase-3, HCT-116; settings: IC50 concentration, 48 h, vs control
Method: as §2, §3

[14] = Homo sapiens, MRC5, MRC-5, 48 h
[15] = Homo sapiens, MRC5, MRC-5, 72 h

Structure (SMILES)	increase of percentage of apoptotic HCT-116 cells compared to control HCT-116 cells (HCT-116 cells [1]) [fold]	percentage of total apoptotic HCT-116 cells (sum of early and late) (HCT-116 cells [1]) [%]	Bax/Bcl-2 ratio [2]	total percentage of apoptotic HeLa cells (HeLa cells [3]) [%]	Selectivity index (SI) (HeLa cells [4]; 48 h)	Cytotoxicity range (HeLa cells [4]; 48 h)	Cytotoxicity range (HeLa cells [4]; 72 h)	IC50 (HeLa cells [4]; Homo sapiens, 48 h) [µM]	IC50 (HeLa cells [4]; Homo sapiens, 72 h) [µM]	% OF HCT-116 CELLS, G2/M (HCT-116 cells [5]) [%]	% OF HELA CELLS, G2/M (HeLa cells [6]) [%]	RELATIVE RATIO OF CYTOSOL CYTC TO MITOCHONDRIAL CYT C IN HCT-116 CELLS [7]	Cytotoxicity range (HCT-116 cells [8]; HCT-116, 48 h)	Selectivity index (SI) (HCT-116 cells [8]; HCT-116, 48 h)	Cytotoxicity range (HCT-116 cells [8]; HCT-116, 72 h)	Selectivity index (SI) (HCT-116 cells [8]; HCT-116, 72 h)	IC50 (HCT-116 cells [8]; Homo sapiens, HCT-116, 48 h) [µM]	IC50 (HCT-116 cells [8]; Homo sapiens, HCT-116, 72 h) [µM]	IC50 (MRC-5 cells; [14]) [µM]	IC50 (MRC-5 cells; [15]) [µM]	further results
COc1cc(/C=C/C(=O)CC(C)C)ccc1OCC(=O)O [E3, (E)-2-(2-Methoxy-4-(5-methyl-3-oxohex-1-en-1-yl)phenoxy)acetic acid]	7.4	51.68	1.6	35.63	5.50	5.47–33.95%	40.39–59.92%	18.2 ± 1.33	3.96 ± 0.1	54.1	58.3	1.1	11.23–75.08%	14.71	66.85–70.44%	42.68	6.8 ± 1.01	1.64 ± 0.01	> 100	> 70	Selectivity index (SI) (HeLa cells [4]; 72 h): 17.67; percentage of cytotoxic HCT-116 cells compared to HeLa cells (fold) (HCT-116 cells [8]): 2.05–2.1 fold; percentage of cytotoxic HCT-116 cells compared to control MRC-5 cells (fold) (HCT-116 cells [8]): 4.4–6.9 fold; JC10-green/JC10 red ratio in HCT-116 cells [9]: 1.4; Bax/Bcl-2 ratio [10]: 0.9; JC10-green/JC10 red ratio in HeLa cells [11]: 1.3
COc1cc(/C=C/C(=O)C2CC2)ccc1OCC(=O)O [E4, (E)-2-(4-(3-Cyclopropyl-3-oxoprop-1-en-1-yl)-2-methoxyphenoxy)acetic acid]	6.7	47.23	1.4	33.18	4.97	12.12–60.72%	42.39–59.81%	20.1 ± 1.19	4.12 ± 0.08	41.4	61.9	0.9	39.29–68.45%	10.62	65.85–71.44%	40.00	9.42 ± 1.78	2 ± 0.01	> 100	> 80	Selectivity index (SI) (HeLa cells [4]; 72 h): 19.41; MFI of active caspase-3 in HeLa (fold change) [12]: 1.6 fold change; MFI of active caspase-3 in HCT-116 (fold change) [13]: 1.9 fold change; JC10-green/JC10 red ratio in HCT-116 cells [9]: 1.4; Bax/Bcl-2 ratio [10]: 1; JC10-green/JC10 red ratio in HeLa cells [11]: 1.2
N.N.[Cl][Pt][Cl] [CP, Cisplatin, reference compound]	–	–	–	42.38	–	–	–	–	–	–	–	–	–	–	–	–	–	–	–	–	IC50 (HeLa cells [4]; 48 h): 16.5 µM; IC50 (HeLa cells [4]; 72 h): 3.62 ± 0.09 µM; IC50 (HCT-116 cells [8]; HCT-116, 48 h): 13.6 µM; IC50 (HCT-116 cells [8]; HCT-116, 72 h): 7.08 ± 0.13 µM; IC50 (MRC-5 cells; MRC-5, 48 h): > 30 µM; IC50 (MRC-5 cells; MRC-5, 72 h): > 85 µM
COc1cc(/C=C/C(C)=O)ccc1OCC(=O)O [E1, (E)-2-(2-Methoxy-4-(3-oxobut-1-en-1-yl)phenoxy)acetic acid]	8.5	59.5	1.8	43.03	8.67	3.12–39.24%	39.35–61%	17.3 ± 1.19	3.59 ± 0.03	50.4	66.9	1.2	11.23–72.91%	24.75	65.85–73.44%	58.03	6.06 ± 0.96	1.12 ± 0.01	> 150	> 65	MFI of active caspase-3 in HeLa (fold change) [12]: 1.9 fold change; MFI of active caspase-3 in HCT-116 (fold change) [13]: 2.1 fold change; percentage of cytotoxic HCT-116 cells compared to HeLa cells (fold) (HCT-116 cells [8]): 1.8–3.6 fold; percentage of cytotoxic HCT-116 cells compared to control MRC-5 cells (fold) (HCT-116 cells [8]): 4.1–4.4 fold; JC10-green/JC10 red ratio in HCT-116 cells [9]: 1.6; Bax/Bcl-2 ratio [10]: 1.1; Bcl-2 protein expression vs control cells ([10]; p < 0.05): decreased; JC10-green/JC10 red ratio in HeLa cells [11]: 1.4
